Key:
[1] = Selectivity ratio of binding affinity for alpha7 nAChR to alpha3beta2
[2] = Selectivity ratio of binding affinity for alpha7 nAChR to alpha4beta2 nAChR
[3] = Selectivity ratio of binding affinity for alpha7 nAChR to muscle nAChR; type: tissue-based; settings: Muscle tissue

## CCN1C[C@]2(COC(=O)c3ccccc3N3C(=O)C[C@H](C)C3=O)CC[C@H](OC)[C@@]34[C@@H]5C[C@H]6[C@H](OC)[C@@H]5[C@](O)(C[C@@H]6OC)[C@](O)([C@@H](OC)[C@H]23)[C@@H]14
[1]
  Ratio: 100
[2]
  Ratio: 1000
[3]
  Ratio: 10000
